{"source": "patent US11691962B2", "about": "(eXIthera Pharmaceuticals, Inc., priority 2018, dated 2023)"}
{"target": "Factor XIa (Homo sapiens (Human), UniProt P03951)", "sequence (P03951 388-625)": "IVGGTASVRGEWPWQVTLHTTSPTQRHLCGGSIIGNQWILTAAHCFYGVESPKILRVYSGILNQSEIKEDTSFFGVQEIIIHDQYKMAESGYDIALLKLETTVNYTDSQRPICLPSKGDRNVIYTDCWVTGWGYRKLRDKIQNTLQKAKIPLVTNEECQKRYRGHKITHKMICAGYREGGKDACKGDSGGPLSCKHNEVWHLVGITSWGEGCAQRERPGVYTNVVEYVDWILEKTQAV", "sequence (P03951 19-387 partner)": "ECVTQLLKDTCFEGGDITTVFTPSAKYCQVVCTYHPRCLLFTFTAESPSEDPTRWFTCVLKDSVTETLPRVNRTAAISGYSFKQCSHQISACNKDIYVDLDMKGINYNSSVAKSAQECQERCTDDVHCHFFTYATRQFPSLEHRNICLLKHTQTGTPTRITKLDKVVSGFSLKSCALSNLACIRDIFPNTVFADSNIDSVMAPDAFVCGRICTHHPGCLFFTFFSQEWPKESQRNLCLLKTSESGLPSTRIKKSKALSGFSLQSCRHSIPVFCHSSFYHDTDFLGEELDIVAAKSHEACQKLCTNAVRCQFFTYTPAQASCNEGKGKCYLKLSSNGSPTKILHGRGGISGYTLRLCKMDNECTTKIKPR", "assay": "Factor XIa enzyme inhibition assay (dose response, fluorogenic AMC substrate)", "type": "biochemical", "conditions": "read-out: hFXIa IC50", "protocol": "• Assay buffer: 20 mM Hepes, pH 7.4; 150 mM NaCl; 0.02% Tween 20 • Compounds: 10 mM stocks in DMSO • Substrate: 20 mM Glp-Pro-Arg-AMC, 25 mg/2.3 mL H2O (store at +4° C.) [Factor XIa, thrombin, and trypsin] • 20 mM Pro-Phe-Arg-AMC (Bachem I-1295), 25 mg/2.2 mL H2O • or Boc-Leu-Gly-Arg-AMC (Bachem I-1105), 25 mg/2.07 mL H2O • (store at +4° C.) [Factor Xa] • Enzyme: Factor XIa; 0.25 μM in 50% glycerol (20 μg/mL) • Trypsin; 0.2 μM in 50% glycerol (4.8 μg/mL) • Thrombin; 0.2 μM in 50% glycerol (7.34 μg/mL) • Factor Xa; 0.2 μM in 50% glycerol (9.2 μg/mL) • These stocks are aliquoted (˜100 μL/aliquot) and stored at −20° C. Methods: • 1. Dilute the substrate to 100 μM in assay buffer (30 μL/6 mL). The enzyme is diluted to 0.5 nM just prior to use (12 μL/6 mL for Factor XIa; 15 μL/6 mL for all of the rest.) • 2. Pipette 50 μL of substrate into each well of the 96 well (12×8) microtiter plate. (Column 1 is used as the 100% activity control and receives no compound, and Column 12 is the blank and receives no enzyme.) Add an additional 46 μL to column 2. • 3. Pipette 4 μL of each compound into the appropriate well in column 2 of the plate (unknowns assayed in triplicate, standard assayed in duplicate). The final compound concentration will be […] of the stock. • 4. Serially two-fold dilute the compound by mixing the sample in column 2, removing 50 μL to the next well (column 3), mix and remove to column 4, etc. until column 11. After mixing column 11, remove 50 μL and discard. • 5. Pipette 50 μL of buffer into column 12. Initiate the reaction by adding 50 μL of enzyme solution to each well of columns 1-11 as rapidly as possible. • 6. Read the plate in a spectrophotometer (SpectraMax) at 30° C., wherein each well is measured every 60 s for 30 min. For Factor Xa assays, each well is measured every 1 min for a total of 60 min. • 7. For Factor XIa assays, the compounds are assayed, in duplicate, at 3 different starting concentrations, 20, 2, and 0.2 μM; 1:10, 1:100, and 1:1000 dilution of 10 mM stock or at 2, 0.2, and 0.02 μM; 1:100, 1:1000, and 1:10,000 dilution of 10 mM stock. Data for each concentration are combined for graphing and data fitting. • 8. Data can be used both for estimation of IC50 and for estimation of Kon.\nPotential inhibitors of Factor XIa were evaluated using the following assay.\nPyroGlu-Pro-Arg-7-methylaminocourin (AMC), available from CPC Scientific, Inc., is based on the substrate pyro-Glu-Pro-Arg-pNA (S-2366), available from Diapharma Group, Inc. (Columbus, Ohio), wherein the p-nitroanaline group is replaced with 7-methylaminocoumarin (AMC).\nThe final concentration of the substrate in the assay was 50 μM, and the final concentration of the enzyme was 0.25 nM. Inhibitors were tested by serial dilution over an appropriate range to yield a dose response curve for determination of the inhibitors' IC50 value. The assay mixture was read every minute for 30 minutes in order to generate progress curves. The plates were read in a Spectramax m5 Multimode Plate Reader (Molecular Devices LLC, Sunnyvale, Calif.). Dose response curves were fit to Equation 1 below in which A is the maximum inhibition, B is the minimum inhibition, C is the IC50, and D is the Hill coefficient. Y=[(A−B)/(1+(X/C)^D)]+B (Equation 1)", "units": {"IC50": "nM"}}
{"smiles": "CC[C@@H](NC(=O)N1C(=O)[C@H](Cc2ccnc(N)c2)[C@H]1C(=O)N(C)c1ccn(C)n1)c1ccsc1", "note": "[Compound 1-54, (2S,3R)-3-((2-aminopyridin-4-yl)methyl)-N2-(1-methyl-1H-pyrazol-3-yl)-N1-((R)-1-(thiophen-3-yl)propyl)-N2-methyl-4-oxoazetidine-1,2-dicarboxamide]", "IC50": "10 to 100"}
{"smiles": "CC[C@H](c1cccc(Cl)c1)N(C)C(=O)N1C(=O)[C@H](Cc2ccnc(N)c2)[C@H]1C(=O)N(C)c1ccnn1C", "note": "[Compound 1-60, (2S,3R)-3-((2-aminopyridin-4-yl)methyl)-N2-(1-methyl-1H-pyrazol-5-yl)-N1-((R)-1-(3-chlorophenyl)propyl)-N1-methyl-N2-methyl-4-oxoazetidine-1,2-dicarboxamide]", "IC50": "10 to 100"}
{"smiles": "CC[C@@H](NC(=O)N1C(=O)[C@H](Cc2cc(C)nc(NC)c2)[C@H]1C(=O)N(C)c1ccnn1C)c1ccccc1", "note": "[Compound 1-61, (2S,3R)-3-((2-methylamino-6-methylpyridin-4-yl)methyl)-N2-(1-methyl-1H-pyrazol-5-yl)-N1-((R)-1-phenylpropyl)-N2-methyl-4-oxoazetidine-1,2-dicarboxamide]", "IC50": "10 to 100"}
{"smiles": "CNC(=O)N1C(=O)[C@H](Cc2ccnc(N)c2)[C@H]1C(=O)N(C)c1ccn(C)n1", "note": "[Compound 1-64, (2S,3R)-3-((2-aminopyridin-4-yl)methyl)-N2-(1-methyl-1H-pyrazol-3-yl)-N1-methyl-N2-methyl-4-oxoazetidine-1,2-dicarboxamide]", "IC50": "100 to 1000"}
{"smiles": "CC[C@@H](NC(=O)N1C(=O)[C@H](Cc2cc(C)nc(NC)c2)[C@H]1C(=O)N(C)c1cnn(C)c1)c1ccccc1", "note": "[Compound 1-66, (2S,3R)-3-((2-methylamino-6-methylpyridin-4-yl)methyl)-N2-(1-methyl-1H-pyrazol-4-yl)-N1-((R)-1-phenylpropyl)-N2-methyl-4-oxoazetidine-1,2-dicarboxamide]", "IC50": "10 to 100"}
{"smiles": "CCC[C@@H](NC(=O)N1C(=O)[C@H](Cc2ccnc(N)c2)[C@H]1C(=O)N(C)c1ccn(C)n1)C1CCCCC1", "note": "[Compound 1-68, (2S,3R)-3-((2-aminopyridin-4-yl)methyl)-N2-(1-methyl-1H-pyrazol-3-yl)-N1-((R)-1-cyclohexylbutyl)-N2-methyl-4-oxoazetidine-1,2-dicarboxamide]", "IC50": "10 to 100"}
{"smiles": "CCCC[C@@H](NC(=O)N1C(=O)[C@H](Cc2ccnc(N)c2)[C@H]1C(=O)N(C)c1ccn(C)n1)C1CCCCC1", "note": "[Compound 1-73, (2S,3R)-3-((2-aminopyridin-4-yl)methyl)-N2-(1-methyl-1H-pyrazol-3-yl)-N1-((R)-1-cyclohexylpentyl)-N2-methyl-4-oxoazetidine-1,2-dicarboxamide]", "IC50": "10 to 100"}
{"smiles": "CC[C@@H](NC(=O)N1C(=O)[C@H](Cc2cc(C)nc(N)c2)[C@H]1C(=O)N(C)c1nccn1C)C1CCCCC1", "note": "[Compound 1-75, (2S,3R)-3-((2-amino-6-methylpyridin-4-yl)methyl)-N2-(1-methyl-1H-imidazol-2-yl)-N1-((R)-1-cyclohexylpropyl)-N2-methyl-4-oxoazetidine-1,2-dicarboxamide]", "IC50": "10 to 100"}
{"smiles": "CC[C@@H](NC(=O)N1C(=O)[C@H](Cc2cc(C)nc(N)c2)[C@H]1C(=O)N(C)c1cn(C)cn1)C1CCCCC1", "note": "[Compound 1-76, (2S,3R)-3-((2-amino-6-methylpyridin-4-yl)methyl)-N2-(1-methyl-1H-imidazol-4-yl)-N1-((R)-1-cyclohexylpropyl)-N2-methyl-4-oxoazetidine-1,2-dicarboxamide]", "IC50": "10 to 100"}
{"smiles": "CC[C@@H](NC(=O)N1C(=O)[C@H](Cc2ccnc(N)c2)[C@H]1C(=O)N(C)c1c(C)cnn1C)c1ccccc1", "note": "[Compound 1-78, (2S,3R)-3-((2-aminopyridin-4-yl)methyl)-N2-(1,4-dimethyl-1H-pyrazol-5-yl)-N1-((R)-1-phenylpropyl)-N2-methyl-4-oxoazetidine-1,2-dicarboxamide]", "IC50": "10 to 100"}
{"smiles": "CC[C@@H](NC(=O)N1C(=O)[C@H](Cc2cc(C)nc(N)c2)[C@H]1C(=O)N(C)c1nccn1C)c1ccc(C)nc1", "note": "[Compound 1-82, (2S,3R)-3-((2-amino-6-methylpyridin-4-yl)methyl)-N2-(1-methyl-1H-imidazol-2-yl)-N1-((R)-1-(6-methylpyridin-3-yl)propyl)-N2-methyl-4-oxoazetidine-1,2-dicarboxamide]", "IC50": "10 to 100"}
{"smiles": "CC(C)[C@@H](NC(=O)N1C(=O)[C@H](Cc2ccnc(N)c2)[C@H]1C(=O)N(C)c1nccn1C)c1ccccc1", "note": "[Compound 1-85, (2S,3R)-3-((2-aminopyridin-4-yl)methyl)-N2-(1-methyl-1H-imidazol-2-yl)-N1-((R)-1-phenyl-2-methylpropyl)-N2-methyl-4-oxoazetidine-1,2-dicarboxamide]", "IC50": "10 to 100"}
{"smiles": "CC[C@@H](NC(=O)N1C(=O)[C@H](Cc2ccnc(N)c2)[C@H]1C(=O)N(C)c1nccn1C)c1cccc(F)c1C", "note": "[Compound 1-86, (2S,3R)-3-((2-aminopyridin-4-yl)methyl)-N2-(1-methyl-1H-imidazol-2-yl)-N1-((R)-1-(3-fluoro-2-methylphenyl)propyl)-N2-methyl-4-oxoazetidine-1,2-dicarboxamide]", "IC50": "100 to 1000"}
{"smiles": "CC[C@H](NC(=O)N1C(=O)[C@H](Cc2ccnc(N)c2)[C@H]1C(=O)N(C)c1ccn(C)n1)c1cccc(Cl)c1", "note": "[Compound 1-93, (2S,3R)-3-((2-aminopyridin-4-yl)methyl)-N2-(1-methyl-1H-pyrazol-3-yl)-N1-((S)-1-(3-chlorophenyl)propyl)-N2-methyl-4-oxoazetidine-1,2-dicarboxamide]", "IC50": "10 to 100"}
{"smiles": "CC[C@@H](NC(=O)N1C(=O)[C@H](Cc2ccnc(N)c2)[C@H]1C(=O)N(C)c1nccn1C)c1ccc(C)nc1C", "note": "[Compound 1-95, (2S,3R)-3-((2-aminopyridin-4-yl)methyl)-N2-(1-methyl-1H-imidazol-2-yl)-N1-((R)-1-(2,6-dimethylpyridin-3-yl)propyl)-N2-methyl-4-oxoazetidine-1,2-dicarboxamide]", "IC50": "10 to 100"}
{"smiles": "CC[C@H](NC(=O)N1C(=O)[C@H](Cc2ccnc(N)c2)[C@H]1C(=O)N(C)c1nccn1C)c1ccc(C)nc1C", "note": "[Compound 1-96, (2S,3R)-3-((2-aminopyridin-4-yl)methyl)-N2-(1-methyl-1H-imidazol-2-yl)-N1-((S)-1-(2,6-dimethylpyridin-3-yl)propyl)-N2-methyl-4-oxoazetidine-1,2-dicarboxamide]", "IC50": "100 to 1000"}
{"smiles": "CC[C@@H](NC(=O)N1C(=O)[C@H](Cc2cc(C)nc(N)c2)[C@H]1C(=O)N(C)c1nccn1C)c1cc(C)ccc1C", "note": "[Compound 1-108, (2S,3R)-3-((2-amino-6-methylpyridin-4-yl)methyl)-N2-(1-methyl-1H-imidazol-2-yl)-N1-((R)-1-(2,5-dimethylphenyl)propyl)-N2-methyl-4-oxoazetidine-1,2-dicarboxamide]", "IC50": "10 to 100"}
{"smiles": "CC[C@@H](NC(=O)N1C(=O)[C@H](Cc2ccnc(N)c2)[C@H]1C(=O)N(C)c1nccn1C)c1ccc(C)cc1Cl", "note": "[Compound 1-116, (2S,3R)-3-((2-aminopyridin-4-yl)methyl)-N2-(1-methyl-1H-imidazol-2-yl)-N1-((R)-1-(2-chloro-4-methylphenyl)propyl)-N2-methyl-4-oxoazetidine-1,2-dicarboxamide]", "IC50": "< 10"}
{"smiles": "CC[C@@H](NC(=O)N1C(=O)[C@H](Cc2ccnc(N)c2)[C@H]1C(=O)N(C)c1nccn1C)c1ccc(F)c(C)c1", "note": "[Compound 1-117, (2S,3R)-3-((2-aminopyridin-4-yl)methyl)-N2-(1-methyl-1H-imidazol-2-yl)-N1-((R)-1-(3-methyl-4-fluorophenyl)propyl)-N2-methyl-4-oxoazetidine-1,2-dicarboxamide]", "IC50": "< 10"}
